Like-named read-outs stand apart in the source and are kept apart here.
Columns and labels:
seed virus grown in eggs = system: seed virus grown in eggs; parameters: species or system influenza virus
[1] = Visible effect of preservative on allantoic fluid; type: physicochemical; settings: preservative 0.1%
From the text: The preserved samples were also examined to determine the visible effect on allantoic fluid, and the results are shown in Table 4 below.

## C[CH2][Hg][S]c1ccccc1C(=O)[O-].[Na+] [thiomersal, sodium ethylmercurithiosalicylate]
Seed virus grown in eggs; virus seed + 0.01% preservative
  Log egg infective doses/ml: 8.2

## O=[N+]([O-])C(Br)(CO)CO [bronopol, 2-bromo-2-nitropropan-1,2-diol]
Seed virus grown in eggs; 0.1% preservative
  Infectivities (summary): Unsatisfactory
Seed virus grown in eggs; compared with Cosmocil CQ and thiomersal, 0.1% bronopol, 0.4% Biopure
  effect on egg infectivities: pronounced negative effect
Seed virus grown in eggs; virus seed + 0.1% preservative
  Log egg infective doses/ml: <5.4 log egg infective doses/ml

## O=[N+]([O-])C(Br)(CO)CO [Nipaguard BNPD]
[1]
  Effect on allantoic fluid (visible): No effect

From US6403363B1, “Method of preservation of vaccines with polybiguanide” (priority 1997, dated 2002)
